The values that follow are results of earlier work, collected in patent US20170304500A1, “MICROFABRICATED TISSUE SCAFFOLDS AND METHODS OF MAKING AND USING THE SAME” (TARA BIOSYSTEMS INC., priority 2014, published 2017).

The series concerns artery and vein. Particulars: released from hydrogel; reported in PNAS; cited from earlier work.

For “thymosin Beta-4: peptide controllably released from a hydrogel (SDKPDMAEIEKFDKSKLKKTETQEKNPLPSKETIEQEKQAGES; Thymosin beta-4 released from hydrogel; UniProt P62328 2-44, looked up)”, the angiogenesis entry was “stimulated angiogenesis”.
